Entries after “also recorded” stand apart in the source; their conditions may differ.
Key:
[1] = tested on: rats with bilateral contusions of the medial prefrontal cortex; assay: Cell counts of Nissl-stained neurons (STR, GP, DMN, VMN), Example 6; assay type: in vivo, rat; conditions: 4 mg/kg in peanut oil
Description: (§1) Male Sprague-Dawley rats (300 g) were housed individually in wire cages and kept on a reverse light-dark cycle (0800-2000 h). Animals were assigned to one of four groups: (1) lesion (n=7); (2) lesion +3 days progesterone (LP3; n=7); (3) lesion +5 days progesterone (LP5; n=7); and (4) Sham (n=8). All procedures involving animals conformed to guidelines set forth in the Guide for the Care and Use of Laboratory Animals (U.S. Department of Health and Human Services, Pub no. 85-23, 1985) and were approved by the Emory University Institutional Animal Care and Use Committee.
Bilateral contusions of the medial prefrontal cortex were created by a pneumatic impactor device as previously described. Briefly, rats were given anesthetized with ketamine/xylazine (90 mg/kg; 10 mg/kg) and placed in a stereotaxic apparatus. A craniectomy (diameter 6 mm) was made over the midline of the prefrontal cortex with its center 1.5 mm AP to bregma. […]
Cell counts were done on an Olympus BH-2 microscope equipped with an eyepiece micrometer grid (sample area=40 μm^2 at ×400 magnification). […] Only cells with neuronal nuclei and intact membranes were counted as neurons.
(§2) Experienced individuals who were blind to treatment conditions of the study conducted all histological and behavioral analyses. All data were tested for normality and homoschedasticity before being analyzed by parametric analysis of variance (ANOVA). MWM results were analyzed using separate mixed-factorial (4 groups×5 days) analysis of variance (ANOVA) on each of the two 5-day testing periods (acquisition and retention respectively). Results of the BSN task were analyzed using the mixed-factorial ANOVA (4 groups×2 post-injury trials). […] Pearson r coefficients were calculated to determine whether significant correlations could be detected between histological (e.g., lesion size and cellular density) and behavioral parameters (e.g., acquisition and retention of the MWM task and measures of sensory neglect).

IL-1β = IL-1β mRNA expression in brain tissue after contusion, real-time quantitative PCR; assay type: in vivo, rat
Source text: (§3) Neurosteroid injections were given at 1 hr and 6 hrs after the contusions, and continued once a day for up to 5 consecutive days post-injury.
(§4) Adult male SD rates received either bilateral prefrontal cortical contusions or sham surgeries. The neurosteroid injections were given at 1 hr and 6 hr after the contusions and continued once a day for up to 5 consecutive days post-injury. At 3 hr, 8 hr, 12 hr and 6 days post-injury, the rats were killed and their brains were processed for mRNA extraction. Expression of mRNA for IL-1β and TNFα were assessed using real-time quantitative PCR.

contusion injury = conditions: cited from earlier work
TNFα = TNFα mRNA expression in brain tissue after contusion, real-time quantitative PCR; assay type: in vivo, rat; conditions: 3 hours and 6 days post-injury
Source text: as §3, §4

[2] = tested on: rats with bilateral contusions of the medial prefrontal cortex; assay: Bilateral sensory neglect (BSN) task, Example 6; assay type: in vivo, rat; conditions: 3 days (LP3); 6 and 20 days post injury
Description: as §1
Bilateral contusions of the medial prefrontal cortex were created by a pneumatic impactor device as previously described. […]
Experienced individuals who were blind to treatment conditions of the study conducted all histological and behavioral analyses. All data were tested for normality and homoschedasticity before being analyzed by parametric analysis of variance (ANOVA). MWM results were analyzed using separate mixed-factorial (4 groups×5 days) analysis of variance (ANOVA) on each of the two 5-day testing periods (acquisition and retention respectively). Results of the BSN task were analyzed using the mixed-factorial ANOVA (4 groups×2 post-injury trials). […]
Measures of attentional abilities, using a bilateral sensory neglect (BSN) task, were recorded one day prior to surgery (baseline) and on postsurgical days 6 and 20. […]

cell death = conditions: by attenuating release of inflammatory cytokines; cited from earlier work
[3] = tested on: rats with bilateral contusions of the medial prefrontal cortex; assay: Morris water maze task, Example 6; assay type: in vivo, rat
Description: as §1
Bilateral contusions of the medial prefrontal cortex were created by a pneumatic impactor device as previously described. Briefly, rats were given anesthetized with ketamine/xylazine (90 mg/kg; 10 mg/kg) and placed in a stereotaxic apparatus. A craniectomy (diameter 6 mm) was made over the midline of the prefrontal cortex with its center 1.5 mm AP to bregma. After removal of the bone, the tip of the impactor (diameter 5 mm) was moved to +3.0 mm AP; 1.0 mm ML (from bregma), and checked for adequate clearance. Trauma was produced by pneumatically activating the piston to impact −2.0 mm DV (from dura) at a velocity of 3 m/s with a brain contact time of 0.5 seconds.
Progesterone was dissolved in peanut oil (Sigma; 4 mg/kg) and injections were given at 1 and 6 hours post-injury and then once per day for either 3 or 5 consecutive days. Control animals received injections of vehicle at similar time-points. Animals were coded with regard to surgery and treatment to prevent experimenter bias during behavioral testing and histological examination.
as §2
Beginning one week after surgery, spatial learning ability was assessed in the Morris water maze (MWM) task described previously. […] Animals were placed in the pool (nose facing the pool-wall) at one of four randomly determined starting positions (e.g.: N, S, E, W). […] Swim speed measures were recorded daily in order to delineate motor dysfunction from learning impairment.

[4] = tested on: rats with medial frontal cortical contusions; assay: Cerebral edema (brain tissue water content) after medial frontal cortex contusion, Example 1; assay type: in vivo, rat; conditions: 4 mg/kg in cyclodextrin, i.p. 1 h and s.c. 6 h post-injury; 2, 24 and 72 hours; compared to vehicle
Description: Contusions to the medical frontal cortex (MFC) using a pneumatic impactor device were generated. Animals were anesthetized by injection of Nembutal (50 mg/kg, i.p) and placed in a stereotaxic apparatus, with body core temperature being maintained with a homeothermic heating blanket system. Using aseptic techniques, a midline incision was made in the scalp, and the fascia retracted to expose the cranium. A centered, bilateral craniotomy was made 3 mm anterior to bregma using a 6 mm diameter trephan. After the removal of the bone, the tip of the impactor was moved to AP:3.0; ML:0.0, checked for adequate clearance, retracted to its elevated position and lowered 3.5 mm DV, so it penetrated the cortex 2 mm. The contusion was made at a velocity of 2.25 m/s with a brain contact time of 0.5 seconds. Following this procedure, the wound cavity was thoroughly cleaned and all bleeding stopped before the fascia and scalp, were sutured closed. In all experiments, the rats' group identity was coded with regard to surgery and treatment to prevent experimenter bias during behavioral testing and later histological examination.
These experimental solutions were then diluted 1:1 with sterile water for a final concentration of HBC of 22.5%.
Sprague-Dawley male rats, approximately 90 days of age at the time of surgery, were used. Rats were housed in individual cages, with a 12:12 light:dark cycle. Food and water were provided ad libitum throughout the experiment. Control rats received sham surgeries and the rest received medial frontal cortical contusions as described in the general methods. The sham-operated controls were given vehicle (cyclodextrin). […] Treatment began one hour after the contusion was produced. […] Subsequently, a second subcutaneous injection 6 hours post-injury for absorption that is more gradual. […]
At 2, 24, and 72 hours the rats were anesthetized, decapitated, and their brains removed quickly from the cranial cavity. […] The brain was placed on a pre-weighed dish and the total weight of the sample was measured. […]

ischemic injury = conditions: following ischemic injury in rats; cited from earlier work

For `CC(=O)[C@H]1CC[C@H]2[C@@H]3CCC4=CC(=O)CC[C@]4(C)[C@H]3CC[C@]12C` [progesterone], the “injury-induced neuronal loss (STR, GP, DMN, VMN)” value ([1]; 3 days (LP3)) was “significant reduction of injury-induced neuronal loss in all brain regions examined”, the “injury-induced neuronal loss (STR, GP, DMN, VMN)” value ([1]; 5 days (LP5)) was “significant reduction of injury-induced neuronal loss in all brain regions examined” and the “neuronal loss in the VMN” value ([1]; 5 days (LP5)) was “more effective than 3 days at attenuating neuronal loss in the VMN; also recorded: significant reductions in cell loss of the VMN”. The “IL-1β mRNA expression” value (IL-1β; 3 hours and 6 days post-injury) was “reduced the expression of both IL-1β and TNFα”, the “IL-1β mRNA expression” value (IL-1β; 8 hrs post-injury) was “but not progesterone, enhanced” and the “post injury cerebral edema” value (contusion injury; following a contusion injury) was “reduces the severity of post injury cerebral edema”. For the same molecule, the “neuronal loss in the LMDN” value (contusion injury; previous studies with this injury model) was “can significantly reduce this neuronal loss”, the “TNFα mRNA expression” value (TNFα) was “reduced the expression of both IL-1β and TNFα” and the BSN task performance [2] was “impaired on this task compared to control animals”. The “cell death in vitro” value (cell death) was “prevent cell death in vitro”, the “spatial learning performance, initial 5-day acquisition phase” value ([3]; 4 mg/kg in peanut oil, 3 or 5 days, all injured groups) was “displayed deficits in spatial learning performance as compared to control animals” and the “spatial learning performance, second 5-day trial block” value ([3]; 4 mg/kg in peanut oil, 5 days (LP5)) was “improved spatial learning performance”. The swim speed ([3]; 3 or 5 days, any day of testing) was “no between-group differences”, the “thigmotaxic (wall-hugging) swim patterns” value ([3]; 5 days (LP5), last 2 days of the second phase of MWM testing) was “reduction of thigmotaxic behavior” and the cerebral edema [4] was “intermediate between injured controls and the allopregnanolone-treated injured rats”. The “cell damage and neurological deficit” value (ischemic injury) was “reduce cell damage and neurological deficit”.
